The record followed here is PubChem BioAssay (NCI).

SMILES strings stand for the structures.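 Results reflect a 48-hour exposure of cells in 96-well plates to compound at five concentrations. GI50: concentration for 50% inhibition of growth. The concentration for full growth arrest is given as TGI.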

Test systems include NCI-H522 lung; SF-539 CNS; SW-620 colon; SF-268 CNS; HCT-15 colon; M14 melanoma; SN12C renal; U251 CNS; HCC-2998 colon; NCI-H23 lung.
Common to all, as to assay: NCI anticancer screen, dose series, 48 h

In the case of `CC1=C(C(=O)Nc2ccc(Cl)c(Cl)c2)C(c2ccccc2O)NC(=O)N1` (stereo not given), the GI50 is greater than 50 µM in the test with NCI-H522 lung; 43.7 µM in the test on SF-539 CNS; greater than 50 µM in the test with SW-620 colon; 46.9 µM in the test on SF-268 CNS; greater than 50 µM in the test on HCT-15 colon; greater than 50 µM in the test on M14 melanoma. The GI50 in the test with SN12C renal is 34.6 µM; in the test on U251 CNS, greater than 50 µM. Also, the TGI in the test on NCI-H522 lung, in the test with SF-539 CNS, in the test with SW-620 colon, in the test with SF-268 CNS, in the test with HCT-15 colon and with M14 melanoma was greater than 50 µM in each case. Also, the TGI in the test on SN12C renal and with U251 CNS was greater than 50 µM each time.

For the compound `CCSC(SCC)=C1C(=O)N(c2ccccc2)N=C1C`, the TGI in the test on NCI-H522 lung stood at 5.05 µM; in the test with HCC-2998 colon it was 27.6 µM; in the test with NCI-H23 lung it was 34.9 µM; in the test with SW-620 colon it was 20.3 µM; in the test with SF-268 CNS, 29.1 µM; in the test with HCT-15 colon, 24.7 µM. Moreover, the TGI in the test with M14 melanoma was found to be 29.7 µM; in the test with SN12C renal, 30 µM.

Regarding `CC(=O)Oc1ccc2c(c1)CC[C@@H]1C2CC[C@]2(C)C(=O)NC(=O)CC12` (stereo not given in full), the TGI in the test with NCI-H522 lung, in the test with SF-539 CNS, in the test on HCC-2998 colon, in the test on NCI-H23 lung, in the test on SW-620 colon and with SF-268 CNS was greater than 100 µM throughout. The TGI with M14 melanoma, in the test on SN12C renal and in the test with U251 CNS was greater than 100 µM each time.

As to `C[C@]12CC[C@H](OC3CCCCO3)CC1=CC[C@@H]1C2CC[C@]2(C)/C(=N/O)CCC12` (stereo not given in full), the TGI in the test on NCI-H522 lung is 31.1 µM; in the test on SF-539 CNS it was greater than 100 µM; in the test with HCC-2998 colon, 37.8 µM; in the test on NCI-H23 lung, 39.1 µM; with SW-620 colon it was greater than 100 µM; with HCT-15 colon it was 44.5 µM. The TGI turned out to be 63.9 µM in the test on M14 melanoma, 31.5 µM with SN12C renal and 40.4 µM with U251 CNS.

Regarding `N[C@@H]1CCCC[C@@H]1N.O=P([O-])([O-])CN(CP(=O)([O-])[O-])CP(=O)([O-])[O-].[Pt+2]`, the GI50 in the test with SF-539 CNS, in the test on HCC-2998 colon, with SW-620 colon, in the test with SF-268 CNS, in the test on HCT-15 colon and with M14 melanoma was greater than 100 µM throughout. In addition, the GI50 with SN12C renal and with U251 CNS was greater than 100 µM each time. The TGI in the test with SF-539 CNS, in the test with HCC-2998 colon, in the test on SW-620 colon, with SF-268 CNS, with HCT-15 colon and in the test with M14 melanoma was greater than 100 µM throughout. Also, the TGI in the test with SN12C renal and in the test with U251 CNS was greater than 100 µM in each case.

Take `CO[C@@]12[C@@H]3NC3CN1C1=C(C(=O)C(N)=C(C)C1=O)[C@@H]2COC(N)=O` (stereo not given in full): the GI50 in the test with NCI-H522 lung was 0.325 µM; in the test on HCC-2998 colon it was 0.46 µM; with HCT-15 colon, 0.807 µM. Also, the TGI in the test with NCI-H522 lung was 2.13 µM; in the test with HCC-2998 colon, 2.02 µM; in the test with NCI-H23 lung, 1.46 µM; in the test with SW-620 colon it was 7.01 µM; with HCT-15 colon, greater than 100 µM; with M14 melanoma it was 1.82 µM. The TGI in the test on SN12C renal is greater than 40.9 µM.

For `FC1OC2OC1C(OCc1ccccc1)C(OCc1ccccc1)C2OCc1ccccc1` (stereo not given), the TGI in the test on SF-539 CNS, in the test with NCI-H23 lung, in the test with SW-620 colon, in the test with SF-268 CNS, with HCT-15 colon and in the test on M14 melanoma was greater than 100 µM throughout. In addition, the TGI in the test with SN12C renal and with U251 CNS was greater than 100 µM in each case.

Regarding `CC(=O)OC1CC2C(=O)C(=O)C1(C)C2(C)C` (stereo not given), the TGI in the test on HCC-2998 colon, in the test on NCI-H23 lung, with SW-620 colon, in the test on SF-268 CNS, with HCT-15 colon and in the test on M14 melanoma was greater than 100 µM each time. The TGI in the test on SN12C renal and in the test on U251 CNS was greater than 100 µM each time.

In the case of `O=C(Cc1ccccc1)NN1C(=O)/C(=C\c2ccc(O)cc2)SC1=Nc1ccccc1`, the TGI with SF-539 CNS, in the test with HCC-2998 colon, with NCI-H23 lung, in the test with SW-620 colon, in the test with SF-268 CNS and with HCT-15 colon was greater than 100 µM each time. The TGI with M14 melanoma, with SN12C renal and in the test on U251 CNS was greater than 100 µM each time.

For `COc1cccc(NC(=O)C(=O)C(C(C)=O)c2nc3ccc(Cl)cc3[nH]c2=O)c1` (stereo not given), the TGI in the test with SF-539 CNS, in the test with HCC-2998 colon, in the test on NCI-H23 lung, with SW-620 colon, in the test on SF-268 CNS and in the test on HCT-15 colon was greater than 100 µM in each case. The TGI in the test on M14 melanoma, in the test with SN12C renal and with U251 CNS was greater than 100 µM in each case.

On to `C#CCN(Cc1ccc2nc(N)[nH]c(=O)c2c1)c1ccc(C(=O)NC(CCC(=O)O)C(=O)O)cc1` (stereo not given), for which the TGI in the test on SF-539 CNS, in the test with HCC-2998 colon, with NCI-H23 lung, in the test with SW-620 colon, with SF-268 CNS and in the test with HCT-15 colon was greater than 100 µM each time. In addition, the TGI with M14 melanoma, in the test on SN12C renal and in the test on U251 CNS was greater than 100 µM throughout.

As for `CSC1=NCC2(S1)c1ccccc1N(C(=O)OC(C)(C)C)C2N1CCCCC1` (stereo not given), the GI50 is 27.5 µM in the test with NCI-H522 lung; greater than 100 µM in the test on SF-539 CNS; 31 µM in the test on HCC-2998 colon; greater than 100 µM in the test with SW-620 colon; 74.4 µM with SF-268 CNS; greater than 100 µM with M14 melanoma. For the same compound, the GI50 in the test with SN12C renal was greater than 100 µM. The TGI in the test with NCI-H522 lung, with SF-539 CNS, in the test with HCC-2998 colon, in the test with SW-620 colon, in the test with SF-268 CNS and with M14 melanoma was greater than 100 µM in each case. In the test with SN12C renal, this compound gave a TGI greater than 100 µM.
